Experimental data: ChEMBL document CHEMBL1123331, “Synthesis of pyrimidin-2-one nucleosides as acid-stable inhibitors of cytidine deaminase” (J Med Chem, 1986)

What was measured:
Cytidine deaminase = Cytidine deaminase (Mus musculus, UniProt P56389); assay: Compound was tested for the inhibitory constant for mouse kidney cytidine deaminase
Adenosine deaminase = target: T1, Adenosine deaminase (Mus musculus, UniProt P03958); assay: Compound was tested for the inhibitory constant for adenosine deaminase (ADA)
T1 sequence (P03958 whole entry): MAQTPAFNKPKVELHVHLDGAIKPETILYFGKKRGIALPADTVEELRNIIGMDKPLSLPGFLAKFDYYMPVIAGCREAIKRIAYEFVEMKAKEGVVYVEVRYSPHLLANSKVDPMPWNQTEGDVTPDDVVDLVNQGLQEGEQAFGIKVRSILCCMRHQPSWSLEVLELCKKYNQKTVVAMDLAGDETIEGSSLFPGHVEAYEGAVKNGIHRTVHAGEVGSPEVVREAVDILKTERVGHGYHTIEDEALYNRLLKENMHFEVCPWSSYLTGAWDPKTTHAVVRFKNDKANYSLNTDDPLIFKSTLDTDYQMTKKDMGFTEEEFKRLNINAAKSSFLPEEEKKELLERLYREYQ

Cytidine deaminase, sequence (P56389 whole entry): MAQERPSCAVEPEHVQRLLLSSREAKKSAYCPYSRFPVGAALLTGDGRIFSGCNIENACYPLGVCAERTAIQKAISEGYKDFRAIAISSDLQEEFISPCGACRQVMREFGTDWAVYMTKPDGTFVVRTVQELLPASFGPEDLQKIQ

Ki (Cytidine deaminase) [µM]	Ki (Adenosine deaminase) [µM]	Compound
100		O=c1nc(CO)ccn1C1O[C@H](CO)[C@@H](O)[C@H]1O (stereo partly drawn)
4		O=C1NC=CCN1C1O[C@H](CO)[C@@H](O)[C@H]1O (stereo partly drawn)
4		O=C1NCC=CN1[C@@H]1O[C@H](CO)[C@@H](O)[C@H]1O
0.4		O=C1NC(CO)C=CN1C1O[C@H](CO)[C@@H](O)[C@H]1O (stereo partly drawn)

Second part, the compound before the results:

Compound	Ki (Cytidine deaminase) [µM]	Ki (Adenosine deaminase) [µM]
OCC1NC=Nc2c1ncn2[C@@H]1O[C@H](CO)[C@@H](O)[C@H]1O (stereo partly drawn)	10	
O=C1NC(C(O)O)CCN1C1O[C@H](CO)[C@@H](O)[C@H]1O (stereo partly drawn)	20	
O=c1ncccn1[C@@H]1O[C@H](CO)[C@@H](O)[C@H]1O [ZEBULARINE]		1
OC[C@H]1O[C@@H](n2cnc3cncnc32)[C@H](O)[C@@H]1O [NEBULARINE]	10	
